# Test results from patent publication US20090131417A1, “SUBSTITUTED PYRIDYL AMIDE COMPOUNDS AS MODULATORS OF THE HISTAMINE H3 RECEPTOR” (priority 2007, published 2009).
# Assays:
# rat H3 receptor = target: T1, rat H3 receptor (Rattus norvegicus, UniProt Q9QYN8); test: Cyclic AMP Accumulation (rat H3); format: cell-based; conditions: SK-N-MC cells expressing reporter construct and rat H3 receptor; Example 1 tested as TFA salt; read-out: Rat pA2 (converted)
# T1 construct: expressed in transfected cells; host or cells: SK-N-MC cells (subline with reporter construct)
# Description: (§1) Sublines of SK-N-MC cells were created that expressed a reporter construct and either the human or rat H3 receptor. The pA2 values were obtained as described by Barbier et al. (2004). Example 1 was tested as the corresponding TFA salt.
# human H3 receptor = target: T2, human H3 receptor (Homo sapiens, UniProt Q9Y5N1); test: Cyclic AMP Accumulation (human H3); format: cell-based; conditions: SK-N-MC cells expressing reporter construct and human H3 receptor, Example 1 tested as TFA salt; for Kb: read-out: Human pA2 (converted)
# T2 construct: expressed in transfected cells; host or cells: SK-N-MC cells
# Description: as §1
# [1] = target: T3, cloned human H3 receptors, stably expressed in SK-N-MC cells (Homo sapiens, UniProt Q9Y5N1); test: H3 Receptor Binding (Human); conditions: average of results obtained
# T3 construct: expressed in transfected cells; host or cells: SK-N-MC cells
# Description: Binding of compounds to the cloned human H3 receptors, stably expressed in SK-N-MC cells, was performed as described by Barbier, A. J. et al. (Br. J. Pharmacol. 2004, 143(5), 649-661). Data for compounds tested in this assay are presented in Table 1, as an average of results obtained.
# [2] = target: T4, rat H3 receptor (rat brain membranes) (Rattus norvegicus, UniProt Q9QYN8); test: H3 Receptor Binding (Rat); conditions: rat brain without cerebellum membranes; 0.8 nM N-[3H]-alpha-methylhistamine; IC50 converted to Ki (Kd 0.8 nM); tested as the corresponding TFA salt
# T4 construct: A rat brain without cerebellum (Zivic Laboratories Inc., Pittsburgh, Pa.) was homogenized; tissue Zivic Laboratories Inc; host or cells: rat brain without cerebellum, membranes
# Description: A rat brain without cerebellum (Zivic Laboratories Inc., Pittsburgh, Pa.) was homogenized in 50 mM Tris-HCl/5 mM EDTA and centrifuged at 1,000 rpm for 5 min. The supernatant was removed and recentrifuged at 15,000 rpm for 30 min. Pellets were rehomogenized in 50 mM Tris/5 mM EDTA (pH 7.4). Membranes were incubated with 0.8 nM N—[^3H]-α-methylhistamine plus/minus test compounds for 60 min at 25° C. and harvested by rapid filtration over GF/C glass fiber filters (pretreated with 0.3% polyethylenimine) followed by four washes with buffer. Nonspecific binding was defined in the presence of 100 μM histamine. Inhibitory concentration (responsible for 50% inhibition of maximal effect, IC50) values were determined by a single site curve-fitting program (GraphPad, San Diego, Calif.) and converted to Ki values based on a N—[^3H]-α-methylhistamine dissociation constant (Kd) of 0.8 nM. The following results were obtained: Example 2, 28 nM; Example 6, 50 nM (tested as the corresponding TFA salt).
# T2 sequence (Q9Y5N1 whole entry): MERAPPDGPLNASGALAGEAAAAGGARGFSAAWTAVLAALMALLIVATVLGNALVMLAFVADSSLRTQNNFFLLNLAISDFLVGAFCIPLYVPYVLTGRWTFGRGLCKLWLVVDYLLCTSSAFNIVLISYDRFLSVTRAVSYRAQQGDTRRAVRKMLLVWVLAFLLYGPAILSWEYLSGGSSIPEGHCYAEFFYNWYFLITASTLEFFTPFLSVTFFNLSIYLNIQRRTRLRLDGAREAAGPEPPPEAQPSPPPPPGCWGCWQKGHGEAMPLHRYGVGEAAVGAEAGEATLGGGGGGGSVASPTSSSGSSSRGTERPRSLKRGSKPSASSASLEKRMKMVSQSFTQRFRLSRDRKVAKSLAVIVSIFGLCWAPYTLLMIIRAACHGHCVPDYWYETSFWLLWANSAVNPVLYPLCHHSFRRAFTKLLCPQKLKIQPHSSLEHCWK
# T3 sequence (Q9Y5N1 whole entry): as above
# T1 sequence (Q9QYN8 whole entry): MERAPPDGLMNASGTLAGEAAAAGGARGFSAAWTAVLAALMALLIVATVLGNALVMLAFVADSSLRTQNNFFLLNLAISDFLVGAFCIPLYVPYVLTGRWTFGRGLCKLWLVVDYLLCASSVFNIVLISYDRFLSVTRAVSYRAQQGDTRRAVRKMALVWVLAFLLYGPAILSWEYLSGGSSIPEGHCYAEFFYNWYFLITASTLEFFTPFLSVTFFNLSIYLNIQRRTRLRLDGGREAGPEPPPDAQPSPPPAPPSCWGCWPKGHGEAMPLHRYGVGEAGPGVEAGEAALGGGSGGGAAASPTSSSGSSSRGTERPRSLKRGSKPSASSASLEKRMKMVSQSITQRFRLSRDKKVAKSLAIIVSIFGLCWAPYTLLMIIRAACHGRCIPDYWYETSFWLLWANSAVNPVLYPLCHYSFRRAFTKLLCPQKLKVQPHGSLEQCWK
# T4 sequence (Q9QYN8 whole entry): as above
Compound,Ki [1] [nM],further results
"O=C(c1cncc(Oc2ccc(F)cc2)c1)N1CCCN(C2CCC2)CC1 [Example 1, (4-Cyclobutyl-[1,4]diazepan-1-yl)-[5-(4-fluoro-phenoxy)-pyridin-3-yl]-methanone]",3.6,Kb (rat H3 receptor): 28.8 nM; Human pA2 (human H3 receptor): 8.87
"O=C(c1cncc(Oc2cccc(Cl)c2)c1)N1CCCN(C2CCC2)CC1 [Example 2, [5-(3-Chloro-phenoxy)-pyridin-3-yl]-(4-cyclobutyl-[1,4]diazepan-1-yl)-methanone]",3.2,Ki [2]: 28 nM
"O=C(c1cncc(Oc2ccccc2)c1)N1CCCN(C2CCC2)CC1 [Example 4, (4-Cyclobutyl-[1,4]diazepan-1-yl)-(5-phenoxy-pyridin-3-yl)-methanone]",3.4,
"COc1cccc(Oc2cncc(C(=O)N3CCCN(C4CCC4)CC3)c2)c1 [Example 5, (4-Cyclobutyl-[1,4]diazepan-1-yl)-[5-(3-methoxy-phenoxy)-pyridin-3-yl]-methanone]",3.4,
"O=C(c1cncc(Oc2cccc(F)c2)c1)N1CCCN(C2CCC2)CC1 [Example 6, (4-Cyclobutyl-[1,4]diazepan-1-yl)-[5-(3-fluoro-phenoxy)-pyridin-3-yl]-methanone]",1,Kb (rat H3 receptor): 20.4 nM; Kb (human H3 receptor): 2.4 nM; Ki [2]: 50 nM
"O=C(c1cncc(Sc2ccc(F)cc2)c1)N1CCCN(C2CCC2)CC1 [Example 8, (4-Cyclobutyl-[1,4]diazepan-1-yl)-[5-(4-fluoro-phenylsulfanyl)-pyridin-3-yl]-methanone]",2.9,Kb (rat H3 receptor): 43.7 nM; Kb (human H3 receptor): 3.98 nM
"O=C(c1cncc(Sc2ncccn2)c1)N1CCCN(C2CCC2)CC1 [Example 11, (4-Cyclobutyl-[1,4]diazepan-1-yl)-[5-(pyrimidin-2-ylsulfanyl)-pyridin-3-yl]-methanone]",18,
"O=C(c1cc(Oc2ccc(F)cc2)ccn1)N1CCCN(C2CCC2)CC1 [Example 14, (4-Cyclobutyl-[1,4]diazepan-1-yl)-[4-(4-fluoro-phenoxy)-pyridin-2-yl]-methanone]",17,
"O=C(c1cc(Sc2ccc(F)cc2)ccn1)N1CCCN(C2CCC2)CC1 [Example 15, (4-Cyclobutyl-[1,4]diazepan-1-yl)-[4-(4-fluoro-phenylsulfanyl)-pyridin-2-yl]-methanone]",12,

# Continued by falling Ki [1], values first:
Ki [1] [nM],Compound,further results
11,"CC(C)Oc1cncc(C(=O)N2CCCN(C3CCC3)CC2)c1 [Example 7, (4-Cyclobutyl-[1,4]diazepan-1-yl)-(5-isopropoxy-pyridin-3-yl)-methanone]",
11,"O=C(c1cc(Oc2ccccc2)ccn1)N1CCCN(C2CCC2)CC1 [Example 13, (4-Cyclobutyl-[1,4]diazepan-1-yl)-(4-phenoxy-pyridin-2-yl)-methanone]",
6.6,"O=C(c1cncc(Sc2ccccn2)c1)N1CCCN(C2CCC2)CC1 [Example 10, (4-Cyclobutyl-[1,4]diazepan-1-yl)-[5-(pyridin-2-ylsulfanyl)-pyridin-3-yl]-methanone]",
3,"CC(C)Sc1cncc(C(=O)N2CCCN(C3CCC3)CC2)c1 [Example 9, (4-Cyclobutyl-[1,4]diazepan-1-yl)-(5-isopropylsulfanyl-pyridin-3-yl)-methanone]",
1.9,"N#Cc1cccc(Oc2cncc(C(=O)N3CCCN(C4CCC4)CC3)c2)c1 [Example 3, 3-[5-(4-Cyclobutyl-[1,4]diazepane-1-carbonyl)-pyridin-3-yloxy]-benzonitrile]",Kb (rat H3 receptor): 6.17 nM; Kb (human H3 receptor): 0.955 nM
1.8,"O=C(c1cncc(Sc2ccncc2)c1)N1CCCN(C2CCC2)CC1 [Example 12, (4-Cyclobutyl-[1,4]diazepan-1-yl)-[5-(pyridin-4-ylsulfanyl)-pyridin-3-yl]-methanone]",
